The results in this text go back to patent US20250152611A1, “IMMUNOMODULATORY LIPIDS AND USES THEREOF” (President and Fellows of Harvard College, priority 2022, published 2025).

One test deals with TLR2-TLR1 heterodimers (Homo sapiens, UniProt O60603+Q15399). The experiment in a line: Potency comparison of TLR2-TLR1 agonists (EC50). The class given is cell-based. The settings on record: order of magnitude only.
Test [1] deals with mouse bone marrow-derived dendritic cells (mBMDCs). The experiment in a line: mBMDC cytokine assay (wild-type cells; TNFα ELISA, cytometric bead array). The settings on record: overnight, fractions or purified compounds at 50 μg/ml. Type of test: cell-based. The text has this: Previously, to identify immunoregulatory small molecules from gut microbes, an unbiased functional assay was employed using cytokine release from murine bone marrow-derived dendritic cells (mBMDCs) in response to fractionated bacterial extracts (7). Dendritic cells, which are part of the innate immune system, detect pathogen-associated molecules and relay information to the adaptive immune system through the release of cytokines. It was reasoned that the same approach would identify immunomodulatory molecules produced by A. muciniphila.
These assays were done as described previously (21). Femurs and tibias were collected from male or female wild-type, TLR2^−/−, or TLR4^−/− C57BL/6 mice that were at least 3-4 weeks old and preferably 7-12 weeks of age. The bone marrow was pushed from the bones using a needle and syringe of complete Dulbecco's Modified Eagle Medium (DMEM) (supplemented with Gibco GlutaMAX Supplement (35050061), Gibco Penicillin-Streptomycin (15140122), and 10% heat-inactivated fetal bovine serum (FBS)) and strained through a 70 μm nylon filter. […] Cells were counted and then plated at approximately 5 million cells per plate with ˜20-40 ng/ml RmGM-CSF (PreProTech 315-03). […] The resulting bone marrow derived dendritic cells (mBMDCs), were then scraped and counted again. […] Data was collected with NovoExpress 1.4.1 and analyzed using FlowJo v10.7.
A general note: An ELISA detects its analyte on a solid surface through an enzyme-linked reagent.

TLR2-TLR1 heterodimers, sequence (O60603 21-784): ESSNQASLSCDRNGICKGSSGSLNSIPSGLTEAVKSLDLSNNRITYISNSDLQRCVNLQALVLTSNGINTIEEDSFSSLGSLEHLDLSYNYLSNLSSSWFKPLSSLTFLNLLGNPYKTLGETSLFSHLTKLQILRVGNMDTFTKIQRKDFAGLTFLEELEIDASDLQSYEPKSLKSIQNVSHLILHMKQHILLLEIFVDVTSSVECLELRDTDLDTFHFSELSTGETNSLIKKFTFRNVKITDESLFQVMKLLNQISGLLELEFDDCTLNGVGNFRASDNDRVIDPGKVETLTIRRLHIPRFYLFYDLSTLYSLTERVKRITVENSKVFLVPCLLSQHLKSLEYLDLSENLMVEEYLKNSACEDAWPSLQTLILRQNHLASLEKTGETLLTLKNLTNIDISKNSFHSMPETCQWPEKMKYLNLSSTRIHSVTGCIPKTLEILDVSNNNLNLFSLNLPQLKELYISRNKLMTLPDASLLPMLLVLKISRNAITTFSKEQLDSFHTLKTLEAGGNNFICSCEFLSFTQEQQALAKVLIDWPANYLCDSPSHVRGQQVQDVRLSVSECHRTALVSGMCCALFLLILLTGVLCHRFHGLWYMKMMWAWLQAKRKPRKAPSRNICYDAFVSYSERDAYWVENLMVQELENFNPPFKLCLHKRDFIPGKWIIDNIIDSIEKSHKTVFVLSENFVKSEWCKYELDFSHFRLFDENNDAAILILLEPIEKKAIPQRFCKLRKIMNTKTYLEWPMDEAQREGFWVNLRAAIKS
TLR2-TLR1 heterodimers, sequence (Q15399 25-786): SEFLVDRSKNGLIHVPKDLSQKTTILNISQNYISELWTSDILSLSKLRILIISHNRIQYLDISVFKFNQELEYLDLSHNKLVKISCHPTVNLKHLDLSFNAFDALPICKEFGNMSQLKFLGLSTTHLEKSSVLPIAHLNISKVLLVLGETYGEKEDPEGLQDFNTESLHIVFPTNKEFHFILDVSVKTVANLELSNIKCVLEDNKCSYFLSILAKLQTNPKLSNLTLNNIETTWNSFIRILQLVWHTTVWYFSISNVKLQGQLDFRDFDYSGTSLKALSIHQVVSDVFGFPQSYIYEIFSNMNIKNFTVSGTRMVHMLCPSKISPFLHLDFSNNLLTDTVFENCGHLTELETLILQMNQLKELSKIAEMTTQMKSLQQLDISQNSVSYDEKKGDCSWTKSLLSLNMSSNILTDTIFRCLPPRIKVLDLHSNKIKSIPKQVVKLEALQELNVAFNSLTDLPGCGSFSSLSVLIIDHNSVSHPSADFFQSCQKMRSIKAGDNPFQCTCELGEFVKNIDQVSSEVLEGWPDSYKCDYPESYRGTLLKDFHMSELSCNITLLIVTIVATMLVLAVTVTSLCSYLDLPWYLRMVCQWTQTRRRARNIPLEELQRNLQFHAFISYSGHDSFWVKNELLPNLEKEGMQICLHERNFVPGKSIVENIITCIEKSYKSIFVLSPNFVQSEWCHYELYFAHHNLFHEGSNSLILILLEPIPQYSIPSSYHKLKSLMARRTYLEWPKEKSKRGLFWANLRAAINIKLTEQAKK

Regarding `CC[C@H](C)CCCCCCCCCCC(=O)OC[C@@H](COP(=O)(O)OCCN)OC(=O)CCCCCCCCCCCC(C)C` [a15:0-i15:0 PE, 12-methyltetradecanoyl-13-methyltetradecanoyl-sn-glycero-3-phosphoethanolamine], the EC50 values result at TLR2-TLR1 heterodimers is given as “μM”. On to `CCCCCCCCCCCCCC(=O)OC[C@H](COP(=O)(O)OCCN)OC(=O)CCCCCCCCCCCCC` [n14:0-n14:0 PE], for which the TNFα induction/production entry in test [1] is listed as “no detectable TNFα induction”. `CCCCCCCCCCCCCCCC(=O)OCC(COP(=O)(O)OCCN)OC(=O)CCCCCCCCCCCCCCC` (stereo not drawn) [n16:0-n16:0 PE]: the TNFα induction/production entry in test [1] is reported as “no detectable TNFα induction”.
